What was measured:
BaF3 [1] = experiment: Antiproliferative activity against mouse BaF3 cells harboring FGFR2 V564M mutant assessed as reduction in cell proliferation measured after 72 hrs by MTS assay; format: functional, cell-based; settings: BaF3, 72 h
BaF3 [2] = experiment: Antiproliferative activity against mouse BaF3 cells harboring wild-type FGFR1 assessed as reduction in cell proliferation measured after 72 hrs by MTS assay; format: functional, cell-based; settings: BaF3, 72 h
BaF3 [3] = experiment: Antiproliferative activity against mouse BaF3 cells harboring wild-type FGFR2 assessed as reduction in cell proliferation measured after 72 hrs by MTS assay; format: functional, cell-based; settings: BaF3, 72 h
BaF3 [4] = experiment: Antiproliferative activity against mouse BaF3 cells harboring wild-type FGFR4 assessed as reduction in cell proliferation measured after 72 hrs by MTS assay; format: functional, cell-based; settings: BaF3, 72 h
BaF3 [5] = experiment: Antiproliferative activity against mouse BaF3 cells harboring wild-type FGFR3 assessed as reduction in cell proliferation measured after 72 hrs by MTS assay; format: functional, cell-based; settings: BaF3, 72 h
[6] = Inhibition of SRC T338M mutant (unknown origin); parameters: species or system Homo sapiens

Row | EC50 (BaF3 [1]) [nM] | EC50 (BaF3 [2]) [nM] | EC50 (BaF3 [3]) [nM] | EC50 (BaF3 [4]) [nM] | EC50 (BaF3 [5]) [nM] | IC50 [6] [nM] | SMILES
1 | 58 | 1 | 1 | 1 | 1 |  | C=CC(=O)Nc1ccc(CN2C(=O)N(c3cc(OC)cc(OC)c3)Cc3cnc(Nc4ccc(N5CCN(C)CC5)cc4)nc32)cc1
2 | 64 | 1 | 1 | 1 | 1 |  | C=CC(=O)Nc1ccc(CN(C(=O)Nc2c(Cl)c(OC)cc(OC)c2Cl)c2cc(Nc3ccc(N4CCN(C)CC4)cc3)ncn2)cc1
3 |  |  |  |  |  | 44 | C=CS(=O)(=O)NCCC(=O)Nc1cccc(Nc2nccc(Nc3ncc(C(=O)Nc4c(C)cccc4Cl)s3)n2)c1

— ChEMBL document CHEMBL5104097, “Discovery of Cysteine-targeting Covalent Protein Kinase Inhibitors” (J Med Chem, 2022)
